Experimental data reported in US6589946B2, “Bile salt conjugates” (Galmed International Limited, priority 1998, dated 2003).

How the values were obtained:
[1] = Cholesterol crystal mass in model bile
Method: (§1) EYL, cholesterol and Na-TC mixtures were dissolved in CHCl3/CH3OH (2:1 v/v), dried under N2 at room temperature, lyophilized overnight and kept at −20°C. under argon until used. Model bile solutions were prepared by suspending the dried lipids in 150 mM NaCl, 1.5 mM disodium EDTA, 50 mM Tris-HCl pH 8.0 and incubating the suspension at 55° C. for 1 hour. The solubilized model biles were incubated, in sealed vials under argon, at 37° C. for the duration of the experiment. Aliquots from the models were examined daily.
Chemical analyses of cholesterol were performed on each sample on the last day of the experiment (day 14), as previously described (G. J. Somjen see above). The samples were collected from the micro wells, centrifuged in an Airfuge (Beckman) at 70,000 rpm for 5 min. Separate determinations were performed on the total sample (before centrifugation) as well as on the supernatant solution. The amount of cholesterol in the precipitated pellets was calculated by subtracting the amounts in the supernatant solutions from the total. […] The crystal mass was also measured spectrophotometrically as the OD difference between day 0 and day 14 of the incubation.
Cholesterol 15 mM, EYL […]. […]
All samples were incubated at 37° C. for 100 hrs. The difference in the optical density between 100 hrs. and 0 hrs.

[2] = Crystal observation time (nucleation time) assay in model bile; conditions: for effect on nucleation time versus control solution: 20% of NaTC replaced by the specific conjugate
Method: Aliquots from each model bile were examined daily by polarized light microscopy. COT was defined as the initial time of detection of at least three cholesterol monohydrate crystals per microscopic field at 100 fold magnification.
Cholesterol 15 mM, EYL 30 ml, NaTC 150 mL. […] In the test solutions 20 mole percent of NaTC was replaced by an equimolar amount of each specific fatty acid/bile acid conjugate tested.

[3] = Crystal growth rate (CGR) assay in model bile
Method: as §1
Crystal growth was monitored spectrophotometrically using a microplate reader (SPECTRA-STL, Austria) (G. J. Somjen, et al., J. Lipid Res., 38, […] 1048-1052). Aliquots (50 μl) of lipid solutions were mixed and shaken vigorously with equivalent volumes of Na-taurodeoxycholate (200 mM), in microplate wells. After 60 minutes at room temperature, the microplates were shaken again and the absorbance, at 405 nm, in each well was measured. Each model was prepared in triplicate and sampled in duplicate for measurement.
The data were collected and analyzed by an IBM compatible personal computer, and the optical density (OD), averaged for triplicate preparations, was calculated. A graph describing the averaged OD changes for each solution was plotted. The slope in the steepest region of the curve was determined by a linear regression fit to at least three measurements and defined as the CGR. CGR and OD differences between day 0 and day 14 were calculated for each model.

[4] = Cholesterol crystal appearance in pooled native human gallbladder bile; conditions: 10 mM test compound; 37° C.; incubation period of 21 days; control bile showed crystals from day 2
Method: Native human gallbladder bile was obtained from cholesterol gallstone patients at cholecystectomy. Pooled bile from several patients was cholesterol enriched by incubation with dried cholesterol or by mixing with a concentrated model bile prior to use in experiments in order to facilitate crystallization.
When the test compound (at a concentration of 10 mM) was incubated with pooled native human gallbladder bile from patients with cholesterol gallstones, the results were as follows:
In the native human bile, from which cholesterol crystals were removed by prior ultracentrifugation for 2 hours, new cholesterol crystals were observed from day 2 of incubation (at 37° C.). Crystal numbers increased progressively reaching a peak of more than 150 crystals per microscopic field on day 14.

[5] = Oral PalC in hamsters, TLC of gallbladder bile; assay type: in vivo; conditions: per os 10-15 mg/animal/day
Method: Male, 6-7 weeks old hamsters weighing 79-83 g were maintained in an animal house with ad libidum access to water and chow.
Test hamsters were given per os by a special syringe 10-15 mg/animal/day of PalC dissolved in 1 ml of saline. Control animals were given an equivalent volume of saline alone. […] On the second day 4 hours after the application of the PalC in saline to the respective animals they were killed by an overdose of chloroform vapors. The abdomens were opened, the bile ducts were tied up, the gallbladders were excised and rinsed twice in saline. They were then placed on the top of conical plastic tubes and incised. The bile was collected at the bottom of the tubes.
Bile samples were centrifuged (Eppendorf centrifuge) for 5 min. at 2000 rpm. Debris was discarded and the supernatant was extracted according to the Folch procedure (chloroform: methanol 2:1). After partition with water, the lipid phase was analyzed by thin layer chromatography on silica gel 60 thin layer plates (Merck). The eluent was dichloromethane:methanol:acetic acid (100:5:1, v:v:v). Samples were compared with a true standard, Reference front (Rf) about 0.2 after development with I2 vapors.

[6] = fed regularly to humans; cited from earlier work
[7] = 20% of Na taurocholate replaced by test compound, vs control model bile
[8] = 10% of NaTC replaced by PalC (B)
[9] = test compound added to whole model bile at 20% of bile salts (F)

CCCCCCCCCCCCCCCCCCCC(=O)N[C@H]1CC[C@@]2(C)[C@@H](C1)C[C@@H](O)[C@@H]1[C@@H]2C[C@H](O)[C@]2(C)[C@@H]([C@H](C)CCC(=O)O)CC[C@@H]12 [C20 conjugate, 3β-Arachidylamido-7α,12α-dihydroxy-5β-cholan-24-oic Acid]
final cholesterol crystal mass, % of the control ([1]; 20 mole percent of NaTC replaced, 14 days of incubation): 38%
nucleation time (crystal observation time) prolonged by [2, 7]: more than 360%
effect on nucleation time versus control solution [2]: prolongation of the nucleation time

CCCCCCCCCCCCCC(=O)N[C@H]1CC[C@@]2(C)[C@@H](C1)C[C@@H](O)[C@@H]1[C@@H]2C[C@H](O)[C@]2(C)[C@@H]([C@H](C)CCC(=O)O)CC[C@@H]12 [Example C14, 3β-Myristylamido-7α,12α-dihydroxy-5β-cholan-24-oic Acid]
effect on nucleation time versus control solution [2]: did not prolong the nucleation time

CCCCCCCCCCCCCCCC(=O)N[C@H]1CC[C@@]2(C)[C@@H](C1)C[C@@H](O)[C@@H]1[C@@H]2C[C@H](O)[C@]2(C)[C@@H]([C@H](C)CCC(=O)O)CC[C@@H]12 [PalC, 3β-Palmitylamido-7α,12α-dihydroxy-5β-cholan-24-oic Acid]
crystal growth rate reduced by [3, 8]: 70%
cholesterol crystal growth rate reduced by ([3]; 20% of Na taurocholate replaced by test compound): 67%
cholesterol crystal growth rate reduced by [3, 9]: 59%
cholesterol mass on day 14 reduced by [1, 8]: 17%
total cholesterol crystal mass reduced by ([1]; 20% of Na taurocholate replaced by test compound, 14 days of incubation): 53%
total crystal mass reduced by ([1]; test compound added to whole model bile at 20% of bile salts (F), 14 days of incubation): 51%
new cholesterol crystals during incubation [4]: no cholesterol crystals were seen
behaviour of animals in the course of treatment [5]: behaved normally
presence in gallbladder bile by TLC (absorbed and excreted into bile) ([5]; bile taken on second day 4 hours after application): presence of PalC in the bile
nucleation time (crystal observation time) prolonged by [2, 7]: 167%
effect on nucleation time versus control solution [2]: prolongation of the nucleation time
nucleation time (crystal observation time) prolonged by [2, 9]: 200%

CCCCCCCCCCCCCCCCCC(=O)N[C@H]1CC[C@@]2(C)[C@@H](C1)C[C@@H](NC(=O)CCCCCCCCCCCCCCCCC)[C@@H]1[C@@H]2CC[C@]2(C)[C@@H]([C@H](C)CCC(=O)O)CC[C@@H]12 [distearoyl ursodeoxycholate, 3β,7α-Distearylamido-5β-ursodeoxycholan-24-oic Acid]
retardation of cholesterol crystallization (nucleation time) versus control model bile and equimolar cholic acid ([2]; 20 mole % of NaTC replaced, 37° C.): particularly effective

C[C@H](CCC(=O)O)[C@H]1CC[C@H]2[C@@H]3[C@@H](O)C[C@@H]4C[C@H](O)CC[C@]4(C)[C@H]3CC[C@]12C [ursodeoxycholic acid]
share of biliary bile acids [6]: 30-50%
